Among the data in US12466800B2, “N-((1,2,3,5,6,7-hexahydro-S-indacen-4-yl)carbamoyl)-4, 5, 6, 7-tetrahydrobenzofuran-2-sulfonamide derivatives and related compounds as NLPR3 modulators for the treatment of multiple sclerosis (MS)” (Zomagen Biosciences Ltd, priority 2019, dated 2025) are IC50 values, retold here.

The assay deals with IL-1b. Briefly: Mouse BMDM IL-1b Assay. As to conditions: Macrophage; mouse bone marrow derived macrophages (C57BL6); 200 ng/mL LPS 3 h, compound 30 min, 5 mM ATP 45 min; IL-1b ELISA of supernatant. The format is cell-based. Here is the method: Example 20: Mouse BMDM IL-1b Assay
Mouse bone marrow cells from C57BL6 tibia and femur were culture in complete Isocov's Media supplemented with 20 ng/mL MCSF (BMDM media) at a density of 50 million cells/15 cm Petri dish. Fresh media was changed every 3 days, and bone marrow derived macrophages were collected, washed, and counted on day 7. Cells were seeded into 96 well plates at a density of 5×10^4 cells per well in 100 uL of BMDM media and cultured overnight. The cells were stimulated at 37° C. with 200 ng/mL Ultrapure LPS-B5 for 3 hours before pre-diluted compounds were added. 30 minutes after compound addition, 5 mM ATP was added for the secondary stimulation for 45 minutes. After stimulation, the plates were briefly spun down, and 50 uL of supernatant was harvested from each well. ELISA for mouse IL-1b was performed with 1:10 and 1:100 diluted supernatant using pre-coated kits. IL-1b concentrations were calculated based on pre-titrated standards, and compound inhibition IC50 is generated using the Levenberg Marquardt damped lease-square method.
In the case of `CC(C)c1cc(F)cc(C(C)C)c1NC(=O)NS(=O)(=O)c1cc2c(o1)CCCC2(C)O` (centres unmarked) [Compound 64, N-((4-fluoro-2,6-diisopropylphenyl)carbamoyl)-4-hydroxy-4-methyl-4,5,6,7-tetrahydrobenzofuran-2-sulfonamide], the IC50 was < 100 nM. The same measure for `CC(C)c1ccc(Cl)c(C(C)C)c1NC(=O)NS(=O)(=O)c1cc2c(o1)CCCC2O` (centres unmarked) [Compound 65, N-((3-chloro-2,6-diisopropylphenyl)carbamoyl)-4-hydroxy-4,5,6,7-tetrahydrobenzofuran-2-sulfonamide]: < 100 nM; for `CC(C)c1ccc(Cl)c(C(C)C)c1NC(=O)NS(=O)(=O)c1cc2c(o1)CCCC2(C)O` (centres unmarked) [Compound 66, N-((3-chloro-2,6-diisopropylphenyl)carbamoyl)-4-hydroxy-4-methyl-4,5,6,7-tetrahydrobenzofuran-2-sulfonamide]: 100 to 1000 nM.

The compound `CC(C)c1ccc(F)c(C(C)C)c1NC(=O)NS(=O)(=O)c1cc2c(o1)CCCC2O` (centres unmarked) [Compound 67, N-((3-fluoro-2,6-diisopropylphenyl)carbamoyl)-4-hydroxy-4,5,6,7-tetrahydrobenzofuran-2-sulfonamide] came in with an IC50 of 100 to 1000 nM. Next, `CC(C)c1ccc(F)c(C(C)C)c1NC(=O)NS(=O)(=O)c1cc2c(o1)CCCC2(C)O` (centres unmarked) [Compound 68, N-((3-fluoro-2,6-diisopropylphenyl)carbamoyl)-4-hydroxy-4-methyl-4,5,6,7-tetrahydrobenzofuran-2-sulfonamide]: < 100 nM. The same measure for `CC(C)c1cc(Br)cc(C(C)C)c1NC(=O)NS(=O)(=O)c1cc2c(o1)CCCC2O` (centres unmarked) [Compound 69, N-((4-bromo-2,6-diisopropylphenyl)carbamoyl)-4-hydroxy-4,5,6,7-tetrahydrobenzofuran-2-sulfonamide]: 100 to 1000 nM; for `CC(C)c1cc(Br)cc(C(C)C)c1NC(=O)NS(=O)(=O)c1cc2c(o1)CCCC2(C)O` (centres unmarked) [Compound 70, N-((4-bromo-2,6-diisopropylphenyl)carbamoyl)-4-hydroxy-4-methyl-4,5,6,7-tetrahydrobenzofuran-2-sulfonamide]: 100 to 1000 nM.

In the case of `CC(C)c1cc(C#N)cc(C(C)C)c1NC(=O)NS(=O)(=O)c1cc2c(o1)CCCC2O` (centres unmarked) [Compound 71, N-((4-cyano-2,6-diisopropylphenyl)carbamoyl)-4-hydroxy-4,5,6,7-tetrahydrobenzofuran-2-sulfonamide], the IC50 lay within 100 to 1000 nM. The same measure for `CC(C)c1cc(C#N)cc(C(C)C)c1NC(=O)NS(=O)(=O)c1cc2c(o1)CCCC2(C)O` (centres unmarked) [Compound 72, N-((4-cyano-2,6-diisopropylphenyl)carbamoyl)-4-hydroxy-4-methyl-4,5,6,7-tetrahydrobenzofuran-2-sulfonamide]: 100 to 1000 nM; for `CC(C)c1cccc(C(C)C)c1NC(=O)NS(=O)(=O)c1cc2c(o1)CCCC2=NO` [Compound 73, N-((2,6-diisopropylphenyl)carbamoyl)-4-(hydroxyimino)-4,5,6,7-tetrahydrobenzofuran-2-sulfonamide]: 100 to 1000 nM; for `CC(C)c1cccc(C(C)C)c1CC(=O)NS(=O)(=O)c1cc2c(o1)CCC(C)(C)C2O` (centres unmarked) [Compound 74, 2-(2,6-diisopropylphenyl)-N-((4-hydroxy-5,5-dimethyl-4,5,6,7-tetrahydrobenzofuran-2-yl)sulfonyl)acetamide]: 1000 to 10000 nM. Next, `CC(C)c1cccc(C(C)C)c1CC(=O)NS(=O)(=O)c1cc2c(o1)CCC(C)(C)C2(C)O` (centres unmarked) [Compound 75, 2-(2,6-diisopropylphenyl)-N-((4-hydroxy-4,5,5-trimethyl-4,5,6,7-tetrahydrobenzofuran-2-yl)sulfonyl)acetamide]: 1000 to 10000 nM; `CC(C)c1cccc(C(C)C)c1CC(=O)NS(=O)(=O)c1cc2c(o1)CCC(C)(C)C2=O` [Compound 76, 2-(2,6-diisopropylphenyl)-N-((5,5-dimethyl-4-oxo-4,5,6,7-tetrahydrobenzofuran-2-yl)sulfonyl)acetamide]: 1000 to 10000 nM; `CC(C)c1cc(Cl)cc(C(C)C)c1NC(=O)NS(=O)(=O)c1cc2c(o1)CCC/C2=N/O` [Compound 77, (Z)-N-((4-chloro-2,6-diisopropylphenyl)carbamoyl)-4-(hydroxyimino)-4,5,6,7-tetrahydrobenzofuran-2-sulfonamide]: 100 to 1000 nM.

For `CC(C)c1cc(Cl)cc(C(C)C)c1NC(=O)NS(=O)(=O)c1cc2c(o1)CCC/C2=N\O` [Compound 78, (E)-N-((4-chloro-2,6-diisopropylphenyl)carbamoyl)-4-(hydroxyimino)-4,5,6,7-tetrahydrobenzofuran-2-sulfonamide], the IC50 was 1000 to 10000 nM.

Compound `CC(C)c1ccc(Cl)c(C(C)C)c1NC(=O)NS(=O)(=O)c1cc2c(o1)CCC/C2=N/O` [Compound 79, (Z)-N-((3-chloro-2,6-diisopropylphenyl)carbamoyl)-4-(hydroxyimino)-4,5,6,7-tetrahydrobenzofuran-2-sulfonamide] yielded an IC50 of 100 to 1000 nM. The compound `CC(C)c1ccc(Cl)c(C(C)C)c1NC(=O)NS(=O)(=O)c1cc2c(o1)CCC/C2=N\O` [Compound 80, (E)-N-((3-chloro-2,6-diisopropylphenyl)carbamoyl)-4-(hydroxyimino)-4,5,6,7-tetrahydrobenzofuran-2-sulfonamide] displayed an IC50 of 100 to 1000 nM. `CC(C)c1cccc(C(C)C)c1NC(=O)NS(=O)(=O)c1cc2c(o1)CCC/C2=N\O` [Compound 81, (E)-N-((2,6-diisopropylphenyl)carbamoyl)-4-(hydroxyimino)-4,5,6,7-tetrahydrobenzofuran-2-sulfonamide] gave an IC50 of 1000 to 10000 nM. The same measure for `O=C(Nc1c2c(c(Br)c3c1CCC3)CCC2)NS(=O)(=O)c1cc2c(o1)CCC/C2=N/O` [Compound 82, (Z)-N-((8-bromo-1,2,3,4,5,6,7-hexahydro-s-indacen-4-yl)carbamoyl)-4-(hydroxyimino)-4,5,6,7-tetrahydrobenzofuran-2-sulfonamide]: 100 to 1000 nM; for `O=C(Nc1c2c(c(Cl)c3c1CCC3)CCC2)NS(=O)(=O)c1cc2c(o1)CCC/C2=N/O` [Compound 83, (Z)-N-((8-chloro-1,2,3,5,6,7-hexahydro-s-indacen-4-yl)carbamoyl)-4-(hydroxyimino)-4,5,6,7-tetrahydrobenzofuran-2-sulfonamide]: < 100 nM; for `CC(C)N1CCCc2oc(S(=O)(=O)NC(=O)Nc3c4c(cc5c3CCC5)CCC4)cc2C1=O` [Compound 84, N-((1,2,3,5,6,7-hexahydro-s-indacen-4-yl)carbamoyl)-5-isopropyl-4-oxo-5,6,7,8-tetrahydro-4H-furo[3,2-c]azepine-2-sulfonamide]: 1000 to 10000 nM.

`CC(C)c1cc(F)cc(C(C)C)c1NC(=O)NS(=O)(=O)c1cc2c(o1)CCC/C2=N/O` [Compound 85, (Z)-N-((4-fluoro-2,6-diisopropylphenyl)carbamoyl)-4-(hydroxyimino)-4,5,6,7-tetrahydrobenzofuran-2-sulfonamide] yielded an IC50 of 1000 to 10000 nM. The same measure for `CC(C)c1cc(F)cc(C(C)C)c1NC(=O)NS(=O)(=O)c1cc2c(o1)CCC/C2=N\O` [Compound 86, (E)-N-((4-fluoro-2,6-diisopropylphenyl)carbamoyl)-4-(hydroxyimino)-4,5,6,7-tetrahydrobenzofuran-2-sulfonamide]: 100 to 1000 nM.

What is called IC50 is the midpoint of a concentration-inhibition curve.
